Assay results reported in patent US9302999B2, “Substituted triazoles as herbicides” (E. I. DU PONT DE NEMOURS AND COMPANY, priority 2012, dated 2016).

Key:
Assay type in all cases: in vivo
[1] = test system: barley, winter (winter barley, Hordeum vulgare); experiment: Test D pre-/postemergence: barley, winter
Procedure, shortened: (§1)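 Pre- and postemergence herbicide screen. Soil for pre: silt loam; post medium: peat moss, vermiculite, wetting agent, starter nutrients. Plant stage at post: 1- to 4-leaf. Readout: visual % control, 14–21 days.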

[2] = test system: speedwell (bird's-eye speedwell, Veronica persica); experiment: Test D pre-/postemergence: speedwell; conditions: Postemergence; for Plant response rating, Speedwell: scale 0 to 100
Procedure, shortened: as §1

[3] = test system: lambsquarters (Chenopodium album); experiment: Test D pre-/postemergence: lambsquarters
Procedure, shortened: as §1

[4] = test system: wheat, spring (spring wheat, Triticum aestivum); experiment: Test D pre-/postemergence: wheat, spring
Procedure, shortened: as §1

[5] = test system: field violet (Viola arvensis); experiment: Test D pre-/postemergence: field violet
Procedure, shortened: as §1

[6] = test system: bromegrass, downy (downy bromegrass, Bromus tectorum); experiment: Test D pre-/postemergence: bromegrass, downy
Procedure, shortened: as §1

[7] = test system: bermudagrass (Cynodon dactylon); experiment: Test C pre-/postemergence: bermudagrass
Procedure, shortened: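 Preemergence on seeds in loam/sand, postemergence on 2–18 cm (1–4-leaf) plants in peat-based medium; compounds in non-phytotoxic solvent with surfactant. After 13–15 days in greenhouse, visual rating versus controls, 0 (no effect) to 100 (complete control).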

kochia (Kochia scoparia) = experiment: Test D pre-/postemergence: kochia
Procedure, shortened: as §1

[8] = Postemergence, 31 g ai/ha, scale 0 to 100 (0 no effect, 100 complete control)
[9] = Postemergence, 62 g ai/ha, scale 0 to 100 (0 no effect, 100 complete control)
[10] = Postemergence, 125 g ai/ha, scale 0 to 100, 0 no effect, 100 complete control
[11] = Postemergence, 250 g ai/ha, scale 0 to 100 (0 no effect, 100 complete control)
[12] = Postemergence, 16 g ai/ha, scale 0 to 100
[13] = Preemergence, 16 g ai/ha, scale 0 to 100 (0 no effect, 100 complete control)
[14] = Preemergence, 31 g ai/ha, scale 0 to 100 (0 no effect, 100 complete control)
[15] = Preemergence, 62 g ai/ha, scale 0 to 100
[16] = Preemergence, 125 g ai/ha, scale 0 to 100
[17] = Preemergence, 250 g ai/ha, scale 0 to 100
[18] = 31 g ai/ha, scale 0 to 100 (0 no effect, 100 complete control)
[19] = 62 g ai/ha, scale 0 to 100 (0 no effect, 100 complete control)
[20] = 125 g ai/ha, scale 0 to 100, 0 no effect, 100 complete control
[21] = Postemergence, 250 g ai/ha, scale 0 to 100
[22] = Preemergence, 31 g ai/ha, scale of 0 to 100, 0 is no effect, 100 is complete control
[23] = Preemergence, 125 g ai/ha, scale 0 to 100, 0 no effect, 100 complete control
[24] = Preemergence, 250 g ai/ha, scale 0 to 100, 0 no effect, 100 complete control
[25] = Postemergence, 8 g ai/ha, scale 0 to 100

## Cc1nn(-c2ccc(F)cc2)nc1Oc1ccnc(C(F)(F)F)c1 [Compound 129, 4-[[2-(4-fluorophenyl)-5-methyl-2H-1,2,3-triazol-4-yl]oxy]-2-(trifluoromethyl)pyridine]
[1]; [8]
  Plant response rating: Barley, Winter: 5
[1]; [9]
  Plant response rating: Barley, Winter: 10
[1]; [10]
  Plant response rating: Barley, Winter: 15
[1]; [11]
  Plant response rating: Barley, Winter: 30
[1]; [12]
  Plant response rating, Barley, Winter: 5
[1]; [13]
  Plant response rating, Barley, Winter: 0
[1]; [14]
  Plant response rating, Barley, Winter: 0
[1]; [15]
  Plant response rating, Barley, Winter: 0
[1]; [16]
  Plant response rating, Barley, Winter: 10
[1]; [17]
  Plant response rating, Barley, Winter: 15
[2]; [18]
  Plant response rating: Speedwell: 100
[2]; [19]
  Plant response rating: Speedwell: 100
[2]; [20]
  Plant response rating: Speedwell: 100
[2]; 250 g ai/ha, scale 0 to 100 (0 no effect, 100 complete control)
  Plant response rating: Speedwell: 100
[2]; 16 g ai/ha
  Plant response rating, Speedwell: 100
[3]; [8]
  Plant response rating: Lambsquarters: 85
[3]; [9]
  Plant response rating: Lambsquarters: 95
[3]; [10]
  Plant response rating: Lambsquarters: 100
[3]; [11]
  Plant response rating: Lambsquarters: 100
[3]; [12]
  Plant response rating, Lambsquarters: 85
[3]; [13]
  Plant response rating, Lambsquarters: 0
[3]; [14]
  Plant response rating, Lambsquarters: 80
[3]; [15]
  Plant response rating, Lambsquarters: 90
[3]; [16]
  Plant response rating, Lambsquarters: 90
[3]; [17]
  Plant response rating, Lambsquarters: 100
[4]; [8]
  Plant response rating: Wheat, Spring: 10
[4]; [9]
  Plant response rating: Wheat, Spring: 10
[4]; [10]
  Plant response rating: Wheat, Spring: 15
[4]; [11]
  Plant response rating: Wheat, Spring: 20
[4]; [12]
  Plant response rating, Wheat, Spring: 5
[4]; [13]
  Plant response rating, Wheat, Spring: 0
[4]; [14]
  Plant response rating, Wheat, Spring: 0
[4]; [15]
  Plant response rating, Wheat, Spring: 0
[4]; [16]
  Plant response rating, Wheat, Spring: 5
[4]; [17]
  Plant response rating, Wheat, Spring: 15
[5]; [8]
  Plant response rating: Field Violet: 100
[5]; [9]
  Plant response rating: Field Violet: 100
[5]; [10]
  Plant response rating: Field Violet: 100
[5]; [11]
  Plant response rating: Field Violet: 80
[5]; [12]
  Plant response rating, Field Violet: 40
[5]; [13]
  Plant response rating, Field Violet: 100
[5]; [14]
  Plant response rating, Field Violet: 100
[5]; [15]
  Plant response rating, Field Violet: 100
[5]; [16]
  Plant response rating, Field Violet: 100
[5]; [17]
  Plant response rating, Field Violet: 100
[6]; [8]
  Plant response rating: Bromegrass, Downy: 10
[6]; [9]
  Plant response rating: Bromegrass, Downy: 20
[6]; [10]
  Plant response rating: Bromegrass, Downy: 30
[6]; [11]
  Plant response rating: Bromegrass, Downy: 30
[6]; [12]
  Plant response rating, Bromegrass, Downy: 10
[6]; [13]
  Plant response rating, Bromegrass, Downy: 0
[6]; [14]
  Plant response rating, Bromegrass, Downy: 10
[6]; [15]
  Plant response rating, Bromegrass, Downy: 10
[6]; [16]
  Plant response rating, Bromegrass, Downy: 20
[6]; [17]
  Plant response rating, Bromegrass, Downy: 30
[7]; [8]
  Plant response rating, Bermudagrass: 40
[7]; [9]
  Plant response rating, Bermudagrass: 45
[7]; [10]
  Plant response rating, Bermudagrass: 60
[7]; [21]
  Plant response rating, Bermudagrass: 70
[7]; [22]
  Plant response rating, Bermudagrass: 98
[7]; Preemergence, 62 g ai/ha, scale 0 to 100, 0 no effect, 100 complete control
  Plant response rating, Bermudagrass: 98
[7]; [23]
  Plant response rating, Bermudagrass: 98
[7]; [24]
  Plant response rating, Bermudagrass: 98
Kochia (Kochia scoparia); [8]
  Plant response rating: Kochia: 98
Kochia (Kochia scoparia); [9]
  Plant response rating: Kochia: 100
Kochia (Kochia scoparia); [10]
  Plant response rating: Kochia: 100
Kochia (Kochia scoparia); [11]
  Plant response rating: Kochia: 100
Kochia (Kochia scoparia); [12]
  Plant response rating, Kochia: 98
Kochia (Kochia scoparia); [13]
  Plant response rating, Kochia: 20
Kochia (Kochia scoparia); [14]
  Plant response rating, Kochia: 25
Kochia (Kochia scoparia); [15]
  Plant response rating, Kochia: 75
Kochia (Kochia scoparia); [16]
  Plant response rating, Kochia: 100
Kochia (Kochia scoparia); [17]
  Plant response rating, Kochia: 100

## Cc1nn(-c2ccc(F)c(F)c2)nc1Oc1ccnc(C(F)(F)F)c1 [Compound 145]
[1]; [8]
  Plant response rating: Barley, Winter: 5
[1]; [9]
  Plant response rating: Barley, Winter: 10
[1]; [10]
  Plant response rating: Barley, Winter: 20
[1]; [25]
  Plant response rating, Barley, Winter: 0
[1]; [12]
  Plant response rating, Barley, Winter: 5
[2]; [18]
  Plant response rating: Speedwell: 70
[2]; [19]
  Plant response rating: Speedwell: 85
[2]; [20]
  Plant response rating: Speedwell: 100
[2]; 8 g ai/ha
  Plant response rating, Speedwell: 50
[2]; 16 g ai/ha
  Plant response rating, Speedwell: 55
[3]; [8]
  Plant response rating: Lambsquarters: 90
[3]; [9]
  Plant response rating: Lambsquarters: 100
[3]; [10]
  Plant response rating: Lambsquarters: 100
[3]; [25]
  Plant response rating, Lambsquarters: 10
[3]; [12]
  Plant response rating, Lambsquarters: 25
[4]; [8]
  Plant response rating: Wheat, Spring: 10
[4]; [9]
  Plant response rating: Wheat, Spring: 20
[4]; [10]
  Plant response rating: Wheat, Spring: 25
[4]; [25]
  Plant response rating, Wheat, Spring: 5
[4]; [12]
  Plant response rating, Wheat, Spring: 5
[5]; [8]
  Plant response rating: Field Violet: 75
[5]; [9]
  Plant response rating: Field Violet: 95
[5]; [10]
  Plant response rating: Field Violet: 95
[5]; [25]
  Plant response rating, Field Violet: 70
[5]; [12]
  Plant response rating, Field Violet: 80
[6]; [8]
  Plant response rating: Bromegrass, Downy: 5
[6]; [9]
  Plant response rating: Bromegrass, Downy: 10
[6]; [10]
  Plant response rating: Bromegrass, Downy: 10
[6]; [25]
  Plant response rating, Bromegrass, Downy: 5
[6]; [12]
  Plant response rating, Bromegrass, Downy: 5
[7]; [8]
  Plant response rating, Bermudagrass: 10
[7]; [9]
  Plant response rating, Bermudagrass: 40
[7]; [10]
  Plant response rating, Bermudagrass: 75
[7]; [21]
  Plant response rating, Bermudagrass: 90
[7]; [22]
  Plant response rating, Bermudagrass: 98
[7]; Preemergence, 62 g ai/ha, scale of 0 to 100, 0 is no effect, 100 is complete control
  Plant response rating, Bermudagrass: 98
[7]; [23]
  Plant response rating, Bermudagrass: 98
[7]; [24]
  Plant response rating, Bermudagrass: 98
Kochia (Kochia scoparia); [8]
  Plant response rating: Kochia: 98
Kochia (Kochia scoparia); [9]
  Plant response rating: Kochia: 100
Kochia (Kochia scoparia); [10]
  Plant response rating: Kochia: 100
Kochia (Kochia scoparia); [25]
  Plant response rating, Kochia: 80
Kochia (Kochia scoparia); [12]
  Plant response rating, Kochia: 90
